ChEMBL document CHEMBL4339191 (J Med Chem, 2019)
Residue numbers refer to the chain shown, from its start. Each block holds one compound with its values, some of them ahead of it.

Columns and labels:
[1] = target: T1, AKR1C1 (Homo sapiens, UniProt Q04828); assay: in vitro; details: probe S-tetralol
T1 sequence (Q04828 whole entry): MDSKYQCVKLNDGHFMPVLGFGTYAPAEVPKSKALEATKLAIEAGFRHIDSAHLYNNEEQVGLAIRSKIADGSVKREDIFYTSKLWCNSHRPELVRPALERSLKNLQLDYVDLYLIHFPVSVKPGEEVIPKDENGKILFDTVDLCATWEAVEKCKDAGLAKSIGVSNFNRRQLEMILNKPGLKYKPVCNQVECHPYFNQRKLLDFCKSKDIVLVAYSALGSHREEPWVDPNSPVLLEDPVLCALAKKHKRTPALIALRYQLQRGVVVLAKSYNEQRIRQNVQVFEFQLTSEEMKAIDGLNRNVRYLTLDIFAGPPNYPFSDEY
Description: Inhibition of recombinant human AKR1C1 expressed in Escherichia coli BL21 (D3) at 200 uM using S-tetralol as substrate in presence of NADP+ by UV-spectrophotometric method relative to control

[2] = target: T2, Aldo-keto reductase family 1 member C1 (Homo sapiens, UniProt Q04828); assay: Inhibition of recombinant human AKR1C1 expressed in Escherichia coli BL21 […] at 100 uM using S-tetralol as substrate in presence of NADP+ by UV-spectrophotometric method relative to control
T2 sequence (Q04828 whole entry): T1 sequence (Q04828 whole entry)

[3] = target: T3, Aldo-keto reductase family 1 member C3 (Homo sapiens, UniProt P42330)
T3 sequence (P42330 whole entry): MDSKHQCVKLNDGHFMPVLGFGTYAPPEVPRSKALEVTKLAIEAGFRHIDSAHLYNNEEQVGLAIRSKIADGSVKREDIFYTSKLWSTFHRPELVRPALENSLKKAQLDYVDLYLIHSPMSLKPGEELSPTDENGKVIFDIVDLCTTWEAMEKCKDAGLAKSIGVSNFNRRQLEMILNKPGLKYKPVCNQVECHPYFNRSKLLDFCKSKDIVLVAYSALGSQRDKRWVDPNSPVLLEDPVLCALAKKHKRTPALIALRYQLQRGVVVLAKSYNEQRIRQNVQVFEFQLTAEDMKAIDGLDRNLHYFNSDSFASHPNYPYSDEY
Description: Inhibition of recombinant full-length human N-terminal His6-tagged AKR1C3 expressed in Escherichia coli BL21 (DE3) using phenanthrenequinone as substrate in presence of NADPH generating system

[4] = target: T4, AKR1C2 (Homo sapiens, UniProt P52895); assay: in vitro; details: probe S-tetralol
T4 sequence (P52895 whole entry): T1 sequence (Q04828 whole entry) with T38V, R47H, L54V, C87S, V151M, R170H, Q172L
Description: Inhibition of recombinant human AKR1C2 expressed in Escherichia coli BL21 (D3) at 200 uM using S-tetralol as substrate in presence of NADP+ by UV-spectrophotometric method relative to control

Compound: CC(C)=CCc1cc(/C=C/C(=O)O)cc(C(=O)NCc2cccc(OC(F)(F)F)c2)c1
- inhibition at 200 µM [1]: 10.6%

Compound: CC/C=C\C[C@H]1C(=O)CC[C@@H]1CC(=O)O [JASMONIC ACID]
- Ki [3]: 24 µM

The remaining lines, values ahead:

- inhibition (INH) [2]: Not Active
Compound: CC(C)=CCc1cc(/C=C/C(=O)O)cc(C(=O)NCc2ccc(N(C)C)cc2)c1

- inhibition (INH) [2]: Not Active
Compound: COc1ccc(CNC(=O)c2cc(/C=C/C(=O)O)cc(CC=C(C)C)c2)cc1

- inhibition at 200 µM [4]: 66.5%
Compound: CC(C)=CCc1cc(/C=C/C(=O)O)cc(C(=O)NCc2ccc(C)cc2)c1
